Each block holds one compound with its values, some of them ahead of it. Where a SMILES comes first, the peptide text is derived from it. The star is where a group is joined. For = O=C*
Key:
Homo sapiens = organism: Homo sapiens; assay: Selectivity ratio of EC50 for agonist activity at human FPR1 transfected in CHO cells to EC50 for agonist activity at human FPR2 transfected in CHO cells; assay type: cell-based
fMet-Leu-Phe receptor [1] = biological target: T1, fMet-Leu-Phe receptor (Homo sapiens, UniProt P21462); assay: Agonist activity at human FPR1 expressed in HL-60 cells assessed as increase in calcium mobilization by FLIPR analysis; assay type: functional, cell-based
T1 sequence (P21462 whole entry): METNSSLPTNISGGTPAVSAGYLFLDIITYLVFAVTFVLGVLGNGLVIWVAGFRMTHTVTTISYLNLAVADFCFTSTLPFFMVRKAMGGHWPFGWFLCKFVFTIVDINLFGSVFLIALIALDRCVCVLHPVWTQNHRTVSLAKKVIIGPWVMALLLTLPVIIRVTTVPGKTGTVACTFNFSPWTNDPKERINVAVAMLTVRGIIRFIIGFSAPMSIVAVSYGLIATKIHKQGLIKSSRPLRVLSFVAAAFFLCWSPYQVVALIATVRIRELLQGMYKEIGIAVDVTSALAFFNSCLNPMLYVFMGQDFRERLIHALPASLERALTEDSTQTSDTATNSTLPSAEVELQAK

[2] = biological target: T2, N-formyl peptide receptor 2 (Homo sapiens, UniProt P25090); assay: Agonist activity at human FPR2 expressed in HL-60 cells assessed as increase in calcium mobilization by FLIPR analysis; assay type: functional, cell-based; settings: hl-60
T2 sequence (P25090 whole entry): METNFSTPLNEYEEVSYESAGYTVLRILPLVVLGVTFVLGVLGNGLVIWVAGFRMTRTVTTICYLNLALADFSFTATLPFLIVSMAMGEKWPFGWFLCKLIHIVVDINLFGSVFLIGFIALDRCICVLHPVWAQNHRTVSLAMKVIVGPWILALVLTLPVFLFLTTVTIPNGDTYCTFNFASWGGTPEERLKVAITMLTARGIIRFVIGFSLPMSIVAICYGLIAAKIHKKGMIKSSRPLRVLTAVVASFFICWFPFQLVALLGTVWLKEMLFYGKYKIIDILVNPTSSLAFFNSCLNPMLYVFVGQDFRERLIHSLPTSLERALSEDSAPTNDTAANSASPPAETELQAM

[3] = biological target: T3, Formyl peptide receptor 2 (Mus musculus, UniProt O88536); assay: Agonist activity at mouse FPR2
T3 sequence (O88536 whole entry): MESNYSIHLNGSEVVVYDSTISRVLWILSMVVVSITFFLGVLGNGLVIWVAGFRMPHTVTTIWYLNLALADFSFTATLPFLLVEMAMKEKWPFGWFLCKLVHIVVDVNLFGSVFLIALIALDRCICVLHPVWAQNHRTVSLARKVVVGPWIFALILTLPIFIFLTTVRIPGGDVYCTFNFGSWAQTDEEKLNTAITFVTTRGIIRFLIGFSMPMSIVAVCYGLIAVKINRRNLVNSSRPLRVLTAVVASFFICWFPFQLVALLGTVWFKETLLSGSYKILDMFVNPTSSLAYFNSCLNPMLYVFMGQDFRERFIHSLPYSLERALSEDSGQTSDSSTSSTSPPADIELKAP

[4] = biological target: T2, N-formyl peptide receptor 2; assay: Agonist activity at FPR2 (unknown origin) expressed in CHO cells by cAMP assay; assay type: functional, cell-based
fMet-Leu-Phe receptor [5] = biological target: T1, fMet-Leu-Phe receptor; assay: Agonist activity at human FPR1 transfected in CHO cells by cAMP assay; assay type: functional, cell-based
fMet-Leu-Phe receptor [6] = biological target: T4, fMet-Leu-Phe receptor (Mus musculus, UniProt P33766); assay: Agonist activity at mouse FPR1; assay type: functional
T4 sequence (P33766 whole entry): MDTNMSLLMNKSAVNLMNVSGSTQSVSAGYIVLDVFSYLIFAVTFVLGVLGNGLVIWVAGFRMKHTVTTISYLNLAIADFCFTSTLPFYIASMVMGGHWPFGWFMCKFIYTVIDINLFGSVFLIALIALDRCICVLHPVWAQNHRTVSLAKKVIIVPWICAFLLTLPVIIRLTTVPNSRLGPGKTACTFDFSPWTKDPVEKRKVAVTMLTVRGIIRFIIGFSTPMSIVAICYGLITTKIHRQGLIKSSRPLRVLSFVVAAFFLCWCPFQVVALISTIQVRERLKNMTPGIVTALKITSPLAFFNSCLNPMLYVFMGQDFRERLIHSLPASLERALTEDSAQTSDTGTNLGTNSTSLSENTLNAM

fMet-Leu-Phe receptor [7] = biological target: T1, fMet-Leu-Phe receptor; assay: Agonist activity at FPR1 (unknown origin) in HEK293 cells; assay type: functional, cell-based
[8] = biological target: T2, N-formyl peptide receptor 2; assay: Agonist activity at FPR2 (unknown origin) in HEK293 cells; assay type: functional, cell-based
fMet-Leu-Phe receptor [9] = biological target: T1, fMet-Leu-Phe receptor; assay: Agonist activity at FPR1 (unknown origin) expressed in CHO cells by cAMP assay; assay type: functional, cell-based
[10] = biological target: T2, N-formyl peptide receptor 2; assay: Agonist activity at human FPR2 expressed in HL-60 cells assessed as inhibition of WKYMVM-induced calcium mobilization; assay type: functional, cell-based

EC50 (fMet-Leu-Phe receptor [1]; hl-60): 1600 nM | EC50 [2]: 120 nM
Compound: COc1cccc(-c2cc(C#N)c(=O)n(CC(=O)Nc3ccc(Br)cc3)c2C)c1

EC50 (fMet-Leu-Phe receptor [7]): 4.7 µM
Compound: COC(=O)c1ccc(NC(=O)CSc2nc3cc(OC)ccc3[nH]2)cc1

EC50 [8]: 0.07 nM
Compound: O=C(NCCCCN1CCCCC1)[C@@H]1C2CCC([C@H]1C(=O)Nc1ccc(Br)cc1)C21CC1 (stereo partly drawn)

EC50 [4]: 40 nM
Compound: Cc1ccc(NC(=O)N[C@H]2CCCN(c3ccc(-c4ccccc4C(N)=O)cc3)C2=O)cc1

EC50 (fMet-Leu-Phe receptor [5]): > 0.01 µM
Compound: COc1cc(-n2c(=O)c(NC(=O)c3ccc(OC(F)F)cc3)c(-c3c(F)cc(OC)cc3F)n2C)cc(C(F)(F)F)c1
Ratio EC50 (Homo sapiens): > 1300

EC50 [4]: < 1 nM | EC50 (fMet-Leu-Phe receptor [9]): 1000 nM
Compound: COc1cc(F)c([C@H]2CC(=O)NC[C@@H]2NC(=O)Nc2ccc(Cl)cc2)c(F)c1 (racemic)

EC50 [4]: 0.25 nM
Compound: COc1ccc([C@@H]2COC(=O)[C@@H]2NC(=O)Nc2ccc(Cl)cc2)cc1 (racemic)

EC50 [8]: 2100 nM
Compound: O=C(CN1CCN(c2ccc(Cl)cc2)CC1)Nc1ccc(Br)cc1

EC50 (fMet-Leu-Phe receptor [1]): 23 nM
Compound: COc1ccc(C2(CNC(=O)[C@@H](Cc3c[nH]c4ccccc34)NC(=O)Nc3ccc([N+](=O)[O-])cc3)CCCCC2)nc1

The next lines start with the compound.

Compound: COc1cc(F)c(-c2c(NC(=O)c3ccc(OC(F)F)cc3)c(=O)n(-c3ccccc3)n2C)c(F)c1
Ratio EC50 (Homo sapiens): 200

Compound: O=C(Nc1ccc(Cl)cc1F)N[C@@H]1CCN(c2ccc(-c3ccccc3F)c(F)c2F)C1=O
Ratio EC50 (Homo sapiens): 12

Compound: CSc1ccc(NC(=O)Nc2ccc3c(c2)C(=O)N(CCCN)C(C)C3)cc1 (stereo not drawn)
EC50 [3]: 15 nM

Compound: COc1ccc(NC(=O)N[C@@H]2CCCN(c3ccc(-c4ccccc4C(N)=O)cc3)C2=O)cc1
EC50 [4]: 5 nM

Compound: COc1cc(C2CCNCC2)nc(-n2c(=O)c(NC(=O)c3ccc(OC(F)F)cc3)c(-c3c(F)cc(OC)cc3F)n2C)c1
EC50 (fMet-Leu-Phe receptor [5]): > 10 µM

Compound: COc1cc(F)c(-c2c(NC(=O)c3ccc(OC(F)F)cc3)c(=O)n(-c3cccc(-n4ccc(C)n4)n3)n2C)c(F)c1
Ratio EC50 (Homo sapiens): 1

Compound: CC(C)c1c(NC(=O)Nc2ccc(Cl)cc2)c(=O)n(-c2ccccc2)n1C
EC50 [3]: 890 nM | EC50 (fMet-Leu-Phe receptor [6]): 0.35 µM

Compound: NC(=O)c1ccccc1-c1ccc(N2CCC[C@H](NC(=O)Nc3ccc(Cl)cc3)C2=O)cc1
EC50 [4]: 5 nM

Compound: N#Cc1ccccc1-c1ccc(N2CC[C@@H](NC(=O)Nc3ccc(Cl)cc3F)C2=O)c(F)c1F
Ratio EC50 (Homo sapiens): 14

Compound: CSCC[C@H](NC=O)C(=O)N[C@@H](CC(C)C)C(=O)N[C@@H](Cc1ccccc1)C(=O)O
EC50 (fMet-Leu-Phe receptor [6]): 23 µM

Compound: O=C(O)[C@@H]1C2CCC([C@@H]1C(=O)Nc1ccc(Br)cc1)C21CC1 (stereo partly drawn)
EC50 [3]: 280 nM

Compound: COCCN1CC[C@H](NC(=O)Nc2ccc(Cl)cc2)[C@@H](c2c(F)cc(OC)cc2F)C1 (racemic)
EC50 [4]: < 1 nM | EC50 (fMet-Leu-Phe receptor [9]): 1000 nM

Compound: COc1ccc(C2(CNC(=O)[C@H](Cc3c[nH]c4ccccc34)NC(=O)Nc3ccc([N+](=O)[O-])cc3)CCCCC2)nc1
EC50 (fMet-Leu-Phe receptor [1]): 4100 nM

Compound: Cc1ccc(NC(=O)N[C@@H]2CCCN(c3ccc(-c4ccccc4C(N)=O)cc3)C2=O)cc1
EC50 [4]: < 5 nM

Compound: CS(=O)(=O)Nc1ccccc1-c1ccc(N2CC[C@@H](NC(=O)Nc3ccc(Cl)cc3F)C2=O)c(F)c1F
Ratio EC50 (Homo sapiens): 340

Compound: H-AKKVFKRLEKLFSKIQNDK-OH
EC50 [10]: 300 nM

Compound: CCP(=O)(CC)c1ccccc1-c1ccc(N2CC[C@@H](NC(=O)Nc3ccc(Cl)cc3F)C2=O)c(F)c1F
Ratio EC50 (Homo sapiens): 350

Compound: CP(C)(=O)c1ccccc1-c1ccc(N2CC[C@@H](NC(=O)Nc3ccc(Cl)cc3F)C2=O)c(F)c1F
Ratio EC50 (Homo sapiens): 490

Compound: CC[C@H](C)[C@H](NC(=O)[C@H](CC(N)=O)NC(=O)[C@@H](NC(=O)[C@H](CCSC)NC=O)[C@@H](C)O)C(=O)N[C@@H](CCCNC(=N)N)C(=O)N[C@@H](CCCCN)C(=O)N[C@@H](CO)C(=O)N[C@@H](Cc1cnc[nH]1)C(=O)N1CCC[C@H]1C(=O)N[C@@H](CC(C)C)C(=O)N[C@@H](CCSC)C(=O)N[C@@H](CCCCN)C(=O)N[C@H](C(=O)N[C@H](C(=O)N[C@@H](CC(N)=O)C(=O)O)[C@@H](C)CC)[C@@H](C)CC (For-MTNIRKSHPLMKIIN-OH)
EC50 [10]: 6.9 nM
